From patent publication US10172957B2, “Acid-labile lipophilic prodrugs of cancer chemotherapeutic agents” (priority 2011, dated 2019)

What was measured:
[1] = tested on: SK-N-AS cells (MDR− Neuroblastoma); test: MTS proliferation assay using SK-N-AS cells; type: cell-based; conditions: Homo sapiens, SK-N-AS, read-out: IC50 in SK-N-AS
Protocol: SK-N-AS cells were plated in appropriate growth medium at 5×10^3 per well in 100 μL in 96 well tissue culture plates, Falcon, one plate for each drug to be tested. Column 1 was blank; it contained medium, but no cells. The plates were incubated overnight at 37° C. in 5% CO2 to allow attachment.
Drug diluted in culture media was added to the cells at a concentration of 0.005 nM to 10 μM, in quadruplicate. After 48-72 hours of drug exposure, the MTS agent was added to all wells and incubated 1-6 hrs (37° C., 5% CO2), depending on cell type, as per CellTiter 96® AQueous Non-Radioactive Cell Proliferation Assay (MTS), Promega. Plates were processed using a Bio-Tek Synergy HT Multi-detection microtiter plate reader at 490 nanometer wavelength and data were processed with KC4V.3 software. Data plots of drug concentration vs. absorbance were plotted and the concentration resulting in 50% inhibition (IC50) was extrapolated for each of the tested compounds.
As summarized in Table 1, the IC50 value for each tested compound in the SK-N-AS cell line was determined. The clinical comparator drug, paclitaxel, was included in the experiment to allow comparison of the results of the candidate compounds to a clinically relevant standard in the taxane class.

[2] = Stability in mouse plasma when added in a lipid emulsion (Liposyn); type: in vitro ADME; conditions: 37° C.
Protocol: (§1) HPLC grade Methanol from Fisher (Fair lawn, NJ, USA). Part No: A452-4 (074833). HPLC grade Water from Fisher (Fair lawn, NJ, USA). Part No: W5-4 (073352). Drug-free mouse, rat and human plasmas were purchased from Innovative Research Inc. (Southfield, Mich., USA). LIPOSYN® I.V. (30% soybean oil and egg yolk phospholipids, Abbott Laboratories) Fat Emulsion from Hospira, Inc. (Lake Forest, Ill.).
(§2) Chromatographic separation of the compounds was performed on a Waters Acquity UPLC™ using a BEH C18 column (1.7 μm, 2.1×50 mm). The mobile phase consisted of Methanol: 0.1% Formic acid (80:20). The flow rate was 0.3 ml/min; the sample injection volume was 5 μL, resulting in a 3 minute run time.
(§3) The MS instrumentation consisted of a Waters Micromass Quattro Micro™ triple-quadrupole system (Manchester, UK). The MS system was controlled by a 4.0 version of MassLynx software. Ionization was performed in the positive electrospray ionization mode. MS/MS conditions were the following: capillary voltage 3.02 kV; cone voltage 50 v; extractor voltage 5 v; and RF lens voltage 0.5 v. The source and desolvation temperatures were 100° C. and 400° C. respectively, and the desolvation and cone gas flow were 400 and 30 L/hr, respectively.
(§4) The selected mass-to-charge (m/z) ratio transitions of the ART 198 used in the selected ion monitoring (SIM) were: for ART 198, 617 (M+K)^+, for ART 273, 589 (M+K)^+, for ART 488, 913 (M+Na)^+, and for ART 489, 957 (M+Na)^+. The dwell time was set at 200 msec. MS conditions were optimized using direct infusion of standard solutions prepared in methanol and delivered by a syringe pump at a flow rate of 20 μL/min.
(§5) Samples of 100 μL were collected at time points of 0, 15, 30, 45, 60, 75, 90, 105, 120, 135, 150, 165, 180, 210, 240, 300, 360 and 480 minutes respectively and the reaction was terminated with methanol. In a separate set of experiments the acid labile, lipophilic molecular conjugates were dissolved in a small amount of ethanol and diluted into a lipid emulsion (Liposyn®) and added to mouse and human plasma before incubation and the hydrolysis of the conjugates was similarly measured. Collected plasma samples of 100 μL containing drug were placed in separate Eppendorf micro centrifuge tubes for processing. Methanol (200 μL) was added to extract the drug using the protein precipitation technique. The micro tubes were then vortex mixed for 10 minutes and centrifuged for 15 minutes at a speed of 10,000 rpm (Eppendorf 5415C centrifuge). The supernatant was collected and filtered using a 0.45 μm filter (Waters 13 mm GHP 0.45 μm) before analysis.
(§6) Samples were collected at various times and the percent remaining of the acid labile, lipophilic molecular conjugate of the cancer chemotherapeutic agent was determined along with the percent of the chemotherapeutic agent released from the hydrolysis of the conjugate.

[3] = Stability in human plasma when added in a lipid emulsion (Liposyn); type: in vitro ADME; conditions: 37° C.
Protocol: as §1, §2, §3, §4, §5, §6

Structure (SMILES)	percent remaining of initial drug ([2]; 0 min) [%]	percent remaining of initial drug ([2]; 15 min) [%]	percent remaining of initial drug ([2]; 30 min) [%]	percent remaining of initial drug ([2]; 45 min) [%]	percent remaining of initial drug ([2]; 60 min) [%]	percent remaining of initial drug ([2]; 75 min) [%]	percent remaining of initial drug ([2]; 90 min) [%]	percent remaining of initial drug ([2]; 105 min) [%]	percent remaining of initial drug ([2]; 120 min) [%]	percent remaining of initial drug ([2]; 135 min) [%]	percent remaining of initial drug ([2]; 150 min) [%]	percent remaining of initial drug ([2]; 165 min) [%]	percent remaining of initial drug ([2]; 180 min) [%]	percent remaining of initial drug ([2]; 210 min) [%]	percent remaining of initial drug ([2]; 240 min) [%]	percent remaining of initial drug ([2]; 300 min) [%]	percent remaining of initial drug ([2]; 360 min) [%]	percent remaining of initial drug ([3]; 0 min) [%]	percent remaining of initial drug ([3]; 15 min) [%]	percent remaining of initial drug ([3]; 30 min) [%]	further results
CCCCCCCCCCCCCCCC1OCC(COC(=O)O[C@@H]2C(=O)C=C(C)[C@@H]3C[C@H]4OC(=O)C(OC(=O)CC(O)(C(C)C)C(C)C)C5[C@@H](C)[C@@H](O)[C@@]6(O)OC[C@@]54C6[C@@]23C)O1 (some centres unmarked) [ART 488]	100	98.7	98.2	97.4	96.9	97.0	98.3	96.0	95.2	93.8	93.1	92.9	91.8	91.7	91.4	91.3	90.0	100	98.3	97.3	IC50 [1]: 0.33 ± 0.1 nM; percent remaining of initial drug ([3]; 45 min): 96.1%; percent remaining of initial drug ([3]; 60 min): 95.8%; percent remaining of initial drug ([3]; 75 min): 95.3%; percent remaining of initial drug ([3]; 90 min): 95.6%; percent remaining of initial drug ([3]; 105 min): 94.6%; percent remaining of initial drug ([3]; 120 min): 94.5%; percent remaining of initial drug ([3]; 135 min): 92.5%; percent remaining of initial drug ([3]; 150 min): 92.2%; percent remaining of initial drug ([3]; 165 min): 91.9%; percent remaining of initial drug ([3]; 180 min): 91.0%; percent remaining of initial drug ([3]; 210 min): 91.0%; percent remaining of initial drug ([3]; 240 min): 90.7%; percent remaining of initial drug ([3]; 300 min): 90.7%; percent remaining of initial drug ([3]; 360 min): 90.2%; percent remaining of initial drug ([3]; 480 min): 88.1%
CCCCCCCCCCCCCCCC1OCC(COC(=O)OC2=C(C)[C@@H]3C[C@H]4OC(=O)C(OC(=O)CC5(O)CCCCC5)[C@H]5[C@]6(C(=O)OC)OC[C@]45[C@H]([C@@H](O)[C@@H]6O)[C@@]3(C)CC2=O)O1 (some centres unmarked) [ART 489]	100	98.0	97.9	97.4	91.4	90.3	87.9	80.7	80.4	79.9	79.2	78.7	78.2	75.6	74.7	73.7	73.0	100	98.4	93.9	percent remaining of initial drug ([3]; 45 min): 92.7%; percent remaining of initial drug ([3]; 60 min): 88.2%; percent remaining of initial drug ([3]; 75 min): 87.9%; percent remaining of initial drug ([3]; 90 min): 87.5%; percent remaining of initial drug ([3]; 105 min): 86.4%; percent remaining of initial drug ([3]; 120 min): 86.4%; percent remaining of initial drug ([3]; 135 min): 84.7%; percent remaining of initial drug ([3]; 150 min): 84.6%; percent remaining of initial drug ([3]; 165 min): 83.7%; percent remaining of initial drug ([3]; 180 min): 82.9%; percent remaining of initial drug ([3]; 210 min): 82.0%; percent remaining of initial drug ([3]; 240 min): 81.4%; percent remaining of initial drug ([3]; 300 min): 80.2%; percent remaining of initial drug ([3]; 360 min): 78.2%; percent remaining of initial drug ([3]; 480 min): 76.6%
